Reference: patent publication EP0745595A1, “3-(3-Aryloxyphenyl)-1-(substituted methyl)-s-triazine-2,4,6-oxo or thiotrione herbicidal agents” (American Cyanamid Company, priority 1995, dated 1996)

Key:
Format in all cases: in vivo
[1] = test system: CHENOPODIUM ALBUM, L.; assay: Postemergence herbicidal evaluation, CHEAL (Lambsquarters, Common); conditions: rated four to five weeks after treatment, averaged
How it was run: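 Seedlings of common lambsquarters (Chenopodium album) were raised in jiffy flats for roughly two weeks, then sprayed postemergence through a nozzle at 40 psi with test compound dispersed in 50/50 acetone/water containing 0.5% TWEEN®20 surfactant. Plants were kept on greenhouse benches under standard care and rated visually on a 0-9 scale versus controls.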

[2] = test system: ORYZA SATIVA, L. TEBONNET; assay: Preemergence herbicidal evaluation, ORYSAT (Rice, Tebonnet); conditions: four to five weeks after treatment
From the text: (§1) Results of herbicide evaluation are expressed on a rating scale (0-9). The scale is based upon a visual observation of plant stand, vigor, malformation, size, chlorosis and overall plant appearance as compared with a control.
(§2) The preemergence herbicidal activity of the test compounds of the present invention is exemplified by the following tests in which the seeds of a variety of monocotyledonous and dicotyledonous plants are separately mixed with potting soil and planted on top of approximately one inch of soil in separate pint cups. […] The treated cups are then placed on greenhouse benches, watered and cared for in accordance with conventional greenhouse procedures. From four to five weeks after treatment, the tests are terminated and each cup is examined and rated according to the rating system provided in Example 40.
(§3) The compounds evaluated are reported by compound number given in Example 40.

[3] = test system: TRITICUM AESTIVUM, CV. APOLLO; assay: Preemergence herbicidal evaluation, TRZAWO (Wheat, Winter, CV. APOLLO); conditions: four to five weeks after treatment
How it was run: (§4)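 First, seeds in potting soil are sown atop soil in cups. Next, the surface is sprayed with test compound in aqueous acetone at roughly 0.125 to 0.50 kg per hectare. After four to five weeks of greenhouse care, each cup is scored 0-9 against a control.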

[4] = test system: CHENOPODIUM ALBUM, L.; assay: Preemergence herbicidal evaluation, CHEAL (Lambsquarters, Common); conditions: four to five weeks after treatment
How it was run: as §4

[5] = test system: IPOMOEA SPP.; assay: Preemergence herbicidal evaluation, IPOSS (Morningglory spp.); conditions: four to five weeks after treatment
How it was run: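 Seeds of morningglory (Ipomoea spp.) were mixed with potting soil and sown on roughly one inch of soil in pint cups for a preemergence herbicide test. The cups were put on greenhouse benches, watered, and maintained by standard greenhouse practice. Four to five weeks after treatment each cup was scored visually on a 0-9 scale against a control.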

[6] = test system: SETARIA VIRIDIS, (L) BEAU; assay: Preemergence herbicidal evaluation, SETVI (Foxtail, Green); conditions: four to five weeks after treatment
From the text: as §1, §2, §3

[7] = test system: ECHINOCHLOA CRUS-GALLI, (L) BEAU; assay: Preemergence herbicidal evaluation, ECHCG (Barnyardgrass); conditions: four to five weeks after treatment
How it was run: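 Barnyardgrass seeds were mixed with potting soil and planted on about one inch of soil in pint cups for preemergence testing. Treated cups were kept on greenhouse benches, watered and maintained by standard greenhouse practice. After four to five weeks, each cup was visually rated on a 0-9 scale against an untreated control.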

[8] = test system: SAGITTARIA PYGMAEA, L.; assay: Preemergence weed control under flooded paddy conditions, SAGPY (Arrowhead (Pygmaea)); conditions: preemergence weeds, rated three to four weeks after treatment
How it was run: (§5)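 Seeds or propagules were planted 0.5 cm deep in silt loam, with flood water held at 1.5 to 3 cm. Compound in 50/50 aqueous/acetone was pipetted into the flood water at about 0.5, 0.25, 0.125 and 0.063 kg/ha. Injury was rated visually on a 0-9 scale against a control 3-4 weeks after treatment.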

[9] = test system: AMBROSIA ARTEMISIIFOLIA, L.; assay: Preemergence herbicidal evaluation, AMBEL (Ragweed, Common); conditions: four to five weeks after treatment
How it was run: as §4

[10] = test system: GLYCINE MAX(L) MERR. CV. WILLIAMS; assay: Preemergence herbicidal evaluation, GLXMAW (Soybean, Williams); conditions: four to five weeks after treatment
How it was run: as §4

[11] = test system: ZEA MAYS L.; assay: Preemergence herbicidal evaluation, ZEAMX (Corn, Field); conditions: four to five weeks after treatment
How it was run: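 Corn (Zea mays) seeds were mixed with potting soil and planted on about one inch of soil in pint cups, then treated preemergence. Cups were kept on greenhouse benches, watered and maintained conventionally, and after four to five weeks were visually rated on a 0-9 scale versus an untreated control.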

[12] = test system: ORYZA SATIVA, L. TEBONNET; assay: Rice tolerance to post-transplant applications under flooded paddy conditions, ORYSAT (Rice, Tebonnet); conditions: post-transplant rice, rated three to four weeks after treatment;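 also: applied to flooded soil surface three days after transplanting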
How it was run: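 Two ten-day-old Tebonnet rice seedlings transplanted into silt loam, flooded 1.5–3 cm; three days later the water surface treated with compounds in acetone/water at about 0.5, 0.25, 0.125 and 0.063 kg/ha. Visual 0–9 injury rating versus control after 3–4 weeks in greenhouse.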

[13] = test system: ABUTILON THEOPHRASTI, MEDIC.; assay: Preemergence herbicidal evaluation, ABUTH (Velvetleaf); conditions: four to five weeks after treatment
From the text: as §1, §2, §3

[14] = test system: […], PRESL.; assay: Preemergence weed control under flooded paddy conditions, MOOVA (Monochoria); conditions: preemergence weeds, rated three to four weeks after treatment
How it was run: as §5

[15] = test system: CYPERUS IRIA; assay: Preemergence weed control under flooded paddy conditions, CYPIR (Rice Flatsedge); conditions: preemergence weeds, rated three to four weeks after treatment
How it was run: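 Seeds or propagating organs of rice flatsedge were planted in the top 0.5 cm of silt loam soil in 32 oz. plastic containers, 10.5 cm across and without drainage holes. Water was kept 1.5 to 3 cm above the soil throughout. Treated containers were kept on greenhouse benches, and herbicidal effect was visually rated on a 0-9 scale against a control.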

[16] = test system: ABUTILON THEOPHRASTI, MEDIC.; assay: Postemergence herbicidal evaluation, ABUTH (Velvetleaf); conditions: rated four to five weeks after treatment, averaged
How it was run: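 Velvetleaf (Abutilon theophrasti) seedlings were raised in jiffy flats for about two weeks and then sprayed postemergence. The test compound was dispersed in a 50/50 acetone/water mixture containing 0.5% TWEEN®20 and applied through a nozzle operating at 40 psi. Plants were kept on greenhouse benches and rated 0-9 four to five weeks after treatment.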

[17] = test system: CASSIA OBTUSIFOLIA, L.; assay: Preemergence herbicidal evaluation, CASOB (Sicklepod); conditions: four to five weeks after treatment
How it was run: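 Seeds of various monocot and dicot plants, including sicklepod, were each mixed with potting soil and sown on roughly one inch of soil in separate pint cups for preemergence testing. Treated cups were kept on greenhouse benches, watered and maintained conventionally. Four to five weeks after treatment, each cup was visually rated on a 0-9 scale against a control.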

[18] = test system: CYPERUS SEROTINUS, ROTTB.; assay: Preemergence weed control under flooded paddy conditions, CYPSE (Flatsedge); conditions: preemergence weeds, rated three to four weeks after treatment
How it was run: as §5

## CCOC(=O)Cn1c(=O)n(CC(=O)OC)c(=O)n(-c2cc(Oc3c(F)cc(C(F)(F)F)cc3Cl)ccc2C#N)c1=O [Compound 12, 1-Ethyl methyl 5-{5-[(2-chloro-α,α,α,6-tetrafluoro-p-tolyl)oxy]-2-cyanophenyl}-dihydro-2,4,6-trioxo-s-triazine-1,3(2H,4H)-diacetate]
[1]; Rate 0.125 kg/ha
  CHEAL, herbicide rating (0-9): 9.0
[1]; Rate 0.250 kg/ha
  CHEAL, herbicide rating (0-9): 9.0
[1]; Rate 0.500 kg/ha
  CHEAL, herbicide rating (0-9): 9.0
[2]; Rate 0.125 kg/ha
  ORYSAT rating: 0.0
[2]; Rate 0.250 kg/ha
  ORYSAT rating: 0.0
[2]; Rate 0.500 kg/ha
  ORYSAT rating: 0.0
[3]; Rate 0.125 kg/ha
  TRZAWO rating: 0.0
[3]; Rate 0.250 kg/ha
  TRZAWO rating: 0.0
[3]; Rate 0.500 kg/ha
  TRZAWO rating: 0.0
[4]; Rate 0.125 kg/ha
  CHEAL rating: 0.0
[4]; Rate 0.250 kg/ha
  CHEAL rating: 0.0
[4]; Rate 0.500 kg/ha
  CHEAL rating: 0.0
[5]; Rate 0.125 kg/ha
  IPOSS rating: 0.0
[5]; Rate 0.250 kg/ha
  IPOSS rating: 0.0
[5]; Rate 0.500 kg/ha
  IPOSS rating: 0.0
[6]; Rate 0.125 kg/ha
  SETVI rating: 0.0
[6]; Rate 0.250 kg/ha
  SETVI rating: 0.0
[6]; Rate 0.500 kg/ha
  SETVI rating: 0.0
[7]; Rate 0.125 kg/ha
  ECHCG rating: 0.0
[7]; Rate 0.250 kg/ha
  ECHCG rating: 0.0
[7]; Rate 0.500 kg/ha
  ECHCG rating: 0.0
[8]; Rate 0.063 kg/ha
  SAGPY herbicidal rating: 0.0
[8]; Rate 0.125 kg/ha
  SAGPY herbicidal rating: 0.0
[8]; Rate 0.250 kg/ha
  SAGPY herbicidal rating: 0.0
[8]; Rate 0.500 kg/ha
  SAGPY herbicidal rating: 0.0
[9]; Rate 0.125 kg/ha
  AMBEL rating: 0.0
[9]; Rate 0.250 kg/ha
  AMBEL rating: 0.0
[9]; Rate 0.500 kg/ha
  AMBEL rating: 0.0
[10]; Rate 0.125 kg/ha
  GLXMAW rating: 0.0
[10]; Rate 0.250 kg/ha
  GLXMAW rating: 0.0
[10]; Rate 0.500 kg/ha
  GLXMAW rating: 0.0
[11]; Rate 0.125 kg/ha
  ZEAMX rating: 0.0
[11]; Rate 0.250 kg/ha
  ZEAMX rating: 0.0
[11]; Rate 0.500 kg/ha
  ZEAMX rating: 0.0
[12]; Rate 0.063 kg/ha
  ORYSAT herbicidal rating (rice tolerance): 0.0
[12]; Rate 0.125 kg/ha
  ORYSAT herbicidal rating (rice tolerance): 0.0
[12]; Rate 0.250 kg/ha
  ORYSAT herbicidal rating (rice tolerance): 0.0
[12]; Rate 0.500 kg/ha
  ORYSAT herbicidal rating (rice tolerance): 1.0
[13]; Rate 0.125 kg/ha
  ABUTH rating: 0.0
[13]; Rate 0.250 kg/ha
  ABUTH rating: 0.0
[13]; Rate 0.500 kg/ha
  ABUTH rating: 0.0

## CCOC(=O)Cn1c(=O)[nH]c(=O)n(-c2cc(Oc3c(F)cc(C(F)(F)F)cc3Cl)ccc2C#N)c1=O [Compound 10, Ethyl 3-{5-[(2-chloro-α,α,α,6-tetrafluoro-p-tolyl)oxy]-2-cyanophenyl}tetrahydro-2,4,6-trioxo-s-triazine-1(2H)-acetate]
[1]; Rate 0.125 kg/ha
  CHEAL, herbicide rating (0-9): 9.0
[1]; Rate 0.250 kg/ha
  CHEAL, herbicide rating (0-9): 9.0
[1]; Rate 0.500 kg/ha
  CHEAL, herbicide rating (0-9): 9.0
[2]; Rate 0.125 kg/ha
  ORYSAT rating: 2.0
[2]; Rate 0.250 kg/ha
  ORYSAT rating: 2.0
[2]; Rate 0.500 kg/ha
  ORYSAT rating: 2.0
[3]; Rate 0.125 kg/ha
  TRZAWO rating: 0.0
[3]; Rate 0.250 kg/ha
  TRZAWO rating: 0.0
[3]; Rate 0.500 kg/ha
  TRZAWO rating: 0.0
[4]; Rate 0.125 kg/ha
  CHEAL rating: 9.0
[4]; Rate 0.250 kg/ha
  CHEAL rating: 9.0
[4]; Rate 0.500 kg/ha
  CHEAL rating: 9.0
[6]; Rate 0.125 kg/ha
  SETVI rating: 0.0
[6]; Rate 0.250 kg/ha
  SETVI rating: 0.0
[6]; Rate 0.500 kg/ha
  SETVI rating: 0.0
[7]; Rate 0.125 kg/ha
  ECHCG rating: 0.0
[7]; Rate 0.250 kg/ha
  ECHCG rating: 0.0
[7]; Rate 0.500 kg/ha
  ECHCG rating: 0.0
[8]; Rate 0.063 kg/ha
  SAGPY herbicidal rating: 0.0
[8]; Rate 0.125 kg/ha
  SAGPY herbicidal rating: 0.0
[8]; Rate 0.250 kg/ha
  SAGPY herbicidal rating: 0.0
[8]; Rate 0.500 kg/ha
  SAGPY herbicidal rating: 0.0
[14]; Rate 0.063 kg/ha
  MOOVA herbicidal rating: 9.0
[14]; Rate 0.125 kg/ha
  MOOVA herbicidal rating: 9.0
[14]; Rate 0.250 kg/ha
  MOOVA herbicidal rating: 9.0
[14]; Rate 0.500 kg/ha
  MOOVA herbicidal rating: 9.0
[15]; Rate 0.063 kg/ha
  CYPIR herbicidal rating: 9.0
[15]; Rate 0.125 kg/ha
  CYPIR herbicidal rating: 9.0
[15]; Rate 0.250 kg/ha
  CYPIR herbicidal rating: 9.0
[15]; Rate 0.500 kg/ha
  CYPIR herbicidal rating: 9.0
[16]; Rate 0.125 kg/ha
  ABUTH, herbicide rating (0-9): 9.0
[16]; Rate 0.250 kg/ha
  ABUTH, herbicide rating (0-9): 9.0
[16]; Rate 0.500 kg/ha
  ABUTH, herbicide rating (0-9): 9.0
[9]; Rate 0.125 kg/ha
  AMBEL rating: 0.0
[9]; Rate 0.250 kg/ha
  AMBEL rating: 0.0
[9]; Rate 0.500 kg/ha
  AMBEL rating: 0.0
[17]; Rate 0.125 kg/ha
  CASOB rating: 0.0
[17]; Rate 0.250 kg/ha
  CASOB rating: 0.0
[17]; Rate 0.500 kg/ha
  CASOB rating: 0.0
[10]; Rate 0.125 kg/ha
  GLXMAW rating: 0.0
[10]; Rate 0.250 kg/ha
  GLXMAW rating: 0.0
[10]; Rate 0.500 kg/ha
  GLXMAW rating: 0.0
[11]; Rate 0.125 kg/ha
  ZEAMX rating: 0.0
[11]; Rate 0.250 kg/ha
  ZEAMX rating: 0.0
[11]; Rate 0.500 kg/ha
  ZEAMX rating: 0.0
[12]; Rate 0.063 kg/ha
  ORYSAT herbicidal rating (rice tolerance): 0.0
[12]; Rate 0.125 kg/ha
  ORYSAT herbicidal rating (rice tolerance): 1.0
[12]; Rate 0.250 kg/ha
  ORYSAT herbicidal rating (rice tolerance): 1.0
[12]; Rate 0.500 kg/ha
  ORYSAT herbicidal rating (rice tolerance): 1.0
[13]; Rate 0.125 kg/ha
  ABUTH rating: 0.0
[13]; Rate 0.250 kg/ha
  ABUTH rating: 0.0
[13]; Rate 0.500 kg/ha
  ABUTH rating: 0.0
[18]; Rate 0.063 kg/ha
  CYPSE herbicidal rating: 0.0
[18]; Rate 0.125 kg/ha
  CYPSE herbicidal rating: 0.0
[18]; Rate 0.250 kg/ha
  CYPSE herbicidal rating: 0.0
